# Assay results: PubChem BioAssay (NCI)
#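 Protocol summary: plate cells (96-well), add compound at 5 concentrations, incubate 48 h, interpolate endpoints linearly. Definition used: TGI = concentration required for complete inhibition of growth.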
# What was measured:
# Assay in all cases: NCI-60 cell line screen, 48 h
# 786-0 renal = tested on: 786-0 renal
# A498 renal = tested on: A498 renal
# A549 NSCLC = tested on: A549 NSCLC
# ACHN renal = tested on: ACHN renal
# BT-549 breast = tested on: BT-549 breast
# CAKI-1 renal = tested on: CAKI-1 renal
# CCRF-CEM leukemia = tested on: CCRF-CEM leukemia
# COLO 205 colon = tested on: COLO 205 colon
# DU-145 prostate = tested on: DU-145 prostate
# HCC-2998 colon = tested on: HCC-2998 colon
# HCT-116 colon = tested on: HCT-116 colon
# HCT-15 colon = tested on: HCT-15 colon
# HL-60(TB) leukemia = tested on: HL-60(TB) leukemia
# HOP-62 NSCLC = tested on: HOP-62 NSCLC
# HOP-92 NSCLC = tested on: HOP-92 NSCLC
# HS 578T breast = tested on: HS 578T breast
# HT29 colon = tested on: HT29 colon
# IGROV1 ovarian = tested on: IGROV1 ovarian
# K-562 leukemia = tested on: K-562 leukemia
# KM12 colon = tested on: KM12 colon
# LOX IMVI melanoma = tested on: LOX IMVI melanoma
# M14 melanoma = tested on: M14 melanoma
# MALME-3M melanoma = tested on: MALME-3M melanoma
# MCF7 breast = tested on: MCF7 breast
# MDA-MB-231 breast = tested on: MDA-MB-231 breast
# MDA-MB-435 = tested on: MDA-MB-435
# MDA-N = tested on: MDA-N
# MOLT-4 leukemia = tested on: MOLT-4 leukemia
# NCI-H23 lung = tested on: NCI-H23 lung
# NCI-H460 lung = tested on: NCI-H460 lung
# NCI/ADR-RES ovarian = tested on: NCI/ADR-RES ovarian
# OVCAR-3 ovarian = tested on: OVCAR-3 ovarian
# OVCAR-4 ovarian = tested on: OVCAR-4 ovarian
# OVCAR-5 ovarian = tested on: OVCAR-5 ovarian
# PC-3 prostate = tested on: PC-3 prostate
# RPMI-8226 leukemia = tested on: RPMI-8226 leukemia
# RXF 393 renal = tested on: RXF 393 renal
# SF-268 CNS = tested on: SF-268 CNS
# SF-295 CNS = tested on: SF-295 CNS
# SF-539 CNS = tested on: SF-539 CNS
# SK-MEL-2 melanoma = tested on: SK-MEL-2 melanoma
# SK-MEL-28 melanoma = tested on: SK-MEL-28 melanoma
# SK-MEL-5 melanoma = tested on: SK-MEL-5 melanoma
# SK-OV-3 ovarian = tested on: SK-OV-3 ovarian
# SN12C renal = tested on: SN12C renal
# SNB-19 CNS = tested on: SNB-19 CNS
# SNB-75 CNS = tested on: SNB-75 CNS
# SR leukemia = tested on: SR leukemia
# SW-620 colon = tested on: SW-620 colon
# T-47D breast = tested on: T-47D breast
# TK-10 renal = tested on: TK-10 renal
# UACC-62 melanoma = tested on: UACC-62 melanoma
# UO-31 renal = tested on: UO-31 renal
# EKVX NSCLC = tested on: EKVX NSCLC
# NCI-H226 lung = tested on: NCI-H226 lung
# NCI-H522 lung = tested on: NCI-H522 lung
# OVCAR-8 ovarian = tested on: OVCAR-8 ovarian
# U251 CNS = tested on: U251 CNS
# UACC-257 melanoma = tested on: UACC-257 melanoma
structure (smiles),measurement,setting,value
O=CC(O)C(O)C(O)C(O)COC(=O)NCCCCC(=O)C(F)(F)C(F)(F)C(F)(F)C(F)(F)C(F)(F)C(F)(F)C(F)(F)F (stereo not given),TGI,786-0 renal,> 100 µM
same,TGI,A498 renal,47.5 µM
same,TGI,A549 NSCLC,> 100 µM
same,TGI,ACHN renal,> 100 µM
same,TGI,BT-549 breast,33.9 µM
same,TGI,CAKI-1 renal,> 100 µM
same,TGI,CCRF-CEM leukemia,56 µM
same,TGI,COLO 205 colon,61.7 µM
same,TGI,DU-145 prostate,> 100 µM
same,TGI,HCC-2998 colon,60.4 µM
same,TGI,HCT-116 colon,33.4 µM
same,TGI,HCT-15 colon,> 100 µM
same,TGI,HL-60(TB) leukemia,> 100 µM
same,TGI,HOP-62 NSCLC,62.8 µM
same,TGI,HOP-92 NSCLC,31.8 µM
same,TGI,HS 578T breast,64.6 µM
same,TGI,HT29 colon,> 100 µM
same,TGI,IGROV1 ovarian,> 100 µM
same,TGI,K-562 leukemia,58.5 µM
same,TGI,KM12 colon,46.4 µM
same,TGI,LOX IMVI melanoma,30.1 µM
same,TGI,M14 melanoma,60.2 µM
same,TGI,MALME-3M melanoma,> 100 µM
same,TGI,MCF7 breast,34 µM
same,TGI,MDA-MB-231 breast,47.6 µM
same,TGI,MDA-MB-435,62.4 µM
same,TGI,MDA-N,73.5 µM
same,TGI,MOLT-4 leukemia,31.1 µM
same,TGI,NCI-H23 lung,> 100 µM
same,TGI,NCI-H460 lung,67.6 µM
same,TGI,NCI/ADR-RES ovarian,> 100 µM
same,TGI,OVCAR-3 ovarian,> 100 µM
same,TGI,OVCAR-4 ovarian,> 100 µM
same,TGI,OVCAR-5 ovarian,33.8 µM
same,TGI,PC-3 prostate,41.5 µM
same,TGI,RPMI-8226 leukemia,> 100 µM
same,TGI,RXF 393 renal,62.4 µM
same,TGI,SF-268 CNS,93.5 µM
same,TGI,SF-295 CNS,59.3 µM
same,TGI,SF-539 CNS,39.2 µM
same,TGI,SK-MEL-2 melanoma,57.5 µM
same,TGI,SK-MEL-28 melanoma,> 100 µM
same,TGI,SK-MEL-5 melanoma,86.8 µM
same,TGI,SK-OV-3 ovarian,56.4 µM
same,TGI,SN12C renal,> 100 µM
same,TGI,SNB-19 CNS,31.8 µM
same,TGI,SNB-75 CNS,59.5 µM
same,TGI,SR leukemia,> 100 µM
same,TGI,SW-620 colon,42.1 µM
same,TGI,T-47D breast,> 100 µM
same,TGI,TK-10 renal,> 100 µM
same,TGI,UACC-62 melanoma,35.1 µM
same,TGI,UO-31 renal,> 100 µM
Cc1cc(N2CCCCC2)nc2ccc(Cc3ccc4nc(N5CCCCC5)cc(C)c4c3)cc12,TGI,786-0 renal,> 100 µM
same,TGI,A498 renal,> 100 µM
same,TGI,A549 NSCLC,> 100 µM
same,TGI,ACHN renal,> 100 µM
same,TGI,BT-549 breast,> 100 µM
same,TGI,CAKI-1 renal,> 100 µM
same,TGI,COLO 205 colon,> 100 µM
same,TGI,DU-145 prostate,> 100 µM
same,TGI,EKVX NSCLC,> 100 µM
same,TGI,HCC-2998 colon,> 100 µM
same,TGI,HCT-116 colon,> 100 µM
same,TGI,HCT-15 colon,> 100 µM
same,TGI,HOP-62 NSCLC,> 100 µM
same,TGI,HOP-92 NSCLC,> 100 µM
same,TGI,HS 578T breast,> 100 µM
same,TGI,HT29 colon,> 100 µM
same,TGI,IGROV1 ovarian,> 100 µM
same,TGI,K-562 leukemia,> 100 µM
same,TGI,KM12 colon,> 100 µM
same,TGI,LOX IMVI melanoma,> 100 µM
same,TGI,M14 melanoma,> 100 µM
same,TGI,MALME-3M melanoma,> 100 µM
same,TGI,MCF7 breast,> 100 µM
same,TGI,MDA-MB-231 breast,> 100 µM
same,TGI,MDA-MB-435,> 100 µM
same,TGI,MDA-N,> 100 µM
same,TGI,MOLT-4 leukemia,> 100 µM
same,TGI,NCI-H226 lung,> 100 µM
same,TGI,NCI-H23 lung,> 100 µM
same,TGI,NCI-H460 lung,> 100 µM
same,TGI,NCI-H522 lung,> 100 µM
same,TGI,NCI/ADR-RES ovarian,> 100 µM
same,TGI,OVCAR-3 ovarian,> 100 µM
same,TGI,OVCAR-4 ovarian,> 100 µM
same,TGI,OVCAR-5 ovarian,> 100 µM
same,TGI,OVCAR-8 ovarian,> 100 µM
same,TGI,PC-3 prostate,> 100 µM
same,TGI,RPMI-8226 leukemia,> 100 µM
same,TGI,RXF 393 renal,> 100 µM
same,TGI,SF-268 CNS,> 100 µM
same,TGI,SF-295 CNS,> 100 µM
same,TGI,SF-539 CNS,> 100 µM
same,TGI,SK-MEL-2 melanoma,> 100 µM
same,TGI,SK-MEL-28 melanoma,> 100 µM
same,TGI,SK-MEL-5 melanoma,> 100 µM
same,TGI,SK-OV-3 ovarian,> 100 µM
same,TGI,SN12C renal,> 100 µM
same,TGI,SNB-19 CNS,> 100 µM
same,TGI,SNB-75 CNS,> 100 µM
same,TGI,SR leukemia,> 100 µM
same,TGI,SW-620 colon,> 100 µM
same,TGI,T-47D breast,> 100 µM
same,TGI,TK-10 renal,> 100 µM
same,TGI,U251 CNS,> 100 µM
same,TGI,UACC-257 melanoma,> 100 µM
same,TGI,UACC-62 melanoma,> 100 µM
same,TGI,UO-31 renal,> 100 µM
